Measurements taken from ChEMBL document CHEMBL1201862, “PubChem BioAssay data set” (2004).
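How tested: cells in 96-well plates exposed to compound for 48 hours at five concentrations. Here, GI50 denotes the concentration required for 50% inhibition of growth.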 Activity calls are given as the source filed them. No stated cut-off is given here; in the data, active = GI50 up to about 1.1 µM and inactive = higher.

Experiments:
Experiment in all cases: growth of human tumour cells (NCI), 48 h
SNB-78 = tested on: SNB-78
RPMI-8226 = tested on: RPMI-8226
COLO 205 = tested on: COLO 205
IGROV-1 = tested on: IGROV-1
M19-MEL = tested on: M19-MEL
TK-10 = tested on: TK-10
SF-268 = tested on: SF-268
SR = tested on: SR
SW-620 = tested on: SW-620
HOP-62 = tested on: HOP-62
HCT-15 = tested on: HCT-15
HCC 2998 = tested on: HCC 2998
LXFL 529 = tested on: LXFL 529
SK-OV-3 = tested on: SK-OV-3
RXF 393 = tested on: RXF 393
ACHN = tested on: ACHN
NCI-H23 = tested on: NCI-H23
U-251 = tested on: U-251
NCI-H460 = tested on: NCI-H460
HOP-18 = tested on: HOP-18
UO-31 = tested on: UO-31
SNB-75 = tested on: SNB-75
LOX IMVI = tested on: LOX IMVI
DLD-1 = tested on: DLD-1
SNB-19 = tested on: SNB-19
OVCAR-5 = tested on: OVCAR-5
Malme-3M = tested on: Malme-3M
SK-MEL-2 = tested on: SK-MEL-2
HT-29 = tested on: HT-29
KM-20L2 = tested on: KM-20L2
MOLT-4 = tested on: MOLT-4
SN12C = tested on: SN12C
UACC-62 = tested on: UACC-62
DMS-273 = tested on: DMS-273
SK-MEL-28 = tested on: SK-MEL-28
XF498 = tested on: XF498
OVCAR-3 = tested on: OVCAR-3
M14 = tested on: M14
SF-539 = tested on: SF-539
DMS-114 = tested on: DMS-114
UACC-257 = tested on: UACC-257
NCI-H522 = tested on: NCI-H522
OVCAR-8 = tested on: OVCAR-8
SF-295 = tested on: SF-295
KM12 = tested on: KM12
786-0 = tested on: 786-0
NCI-H226 = tested on: NCI-H226
RXF 631 = tested on: RXF 631
EKVX = tested on: EKVX
SK-MEL-5 = tested on: SK-MEL-5
HOP-92 = tested on: HOP-92
HCT-116 = tested on: HCT-116
A549 = tested on: A549
CAKI-1 = tested on: CAKI-1
HL-60 = tested on: HL-60
NCI/ADR-RES = tested on: NCI/ADR-RES
MCF7 = tested on: MCF7
K562 = tested on: K562
CCRF-CEM = tested on: CCRF-CEM
A498 = tested on: A498
OVCAR-4 = tested on: OVCAR-4

CC(=O)OC1(C(C)=O)CC2(c3ccccc3)OC1(c1ccccc1)c1ccccc12 (configuration not stated)
GI50 (SNB-78): 31.7 µM (inactive) | GI50 (RPMI-8226): 3.18 µM (inactive) | GI50 (COLO 205): 7.67 µM (inactive) | GI50 (IGROV-1): 4.91 µM (inactive) | GI50 (M19-MEL): 9.77 µM (inactive) | GI50 (TK-10): 17.6 µM (inactive) | GI50 (SF-268): 52.5 µM (inactive) | GI50 (SR): 6.56 µM (inactive) | GI50 (SW-620): 16.7 µM (inactive) | GI50 (HOP-62): 11.6 µM (inactive) | GI50 (HCT-15): 6.38 µM | GI50 (HCC 2998): 16.8 µM (inactive) | GI50 (LXFL 529): 7.53 µM (inactive) | GI50 (SK-OV-3): 46.9 µM (inactive) | GI50 (RXF 393): 13 µM (inactive) | GI50 (ACHN): 16.6 µM (inactive) | GI50 (NCI-H23): 8.34 µM (inactive) | GI50 (U-251): 18.2 µM (inactive) | GI50 (NCI-H460): 10.4 µM (inactive) | GI50 (HOP-18): 42.5 µM (inactive) | GI50 (UO-31): 12 µM (inactive) | GI50 (SNB-75): 59.6 µM (inactive) | GI50 (LOX IMVI): 16.4 µM (inactive) | GI50 (DLD-1): 8.34 µM (inactive) | GI50 (SNB-19): 7.73 µM (inactive) | GI50 (OVCAR-5): > 100 µM (inactive) | GI50 (Malme-3M): 18.6 µM (inactive) | GI50 (SK-MEL-2): 12.6 µM (inactive) | GI50 (HT-29): 30.1 µM (inactive) | GI50 (KM-20L2): 8.59 µM (inactive) | GI50 (MOLT-4): 5.81 µM (inactive) | GI50 (SN12C): 35.6 µM (inactive) | GI50 (UACC-62): 4.36 µM (inactive) | GI50 (DMS-273): 5.08 µM (inactive) | GI50 (SK-MEL-28): 31.6 µM (inactive) | GI50 (XF498): 5.51 µM (inactive) | GI50 (OVCAR-3): 11.4 µM (inactive) | GI50 (M14): 14.4 µM (inactive) | GI50 (SF-539): 32 µM (inactive) | GI50 (DMS-114): 3.21 µM (inactive) | GI50 (UACC-257): 4.1 µM (inactive) | GI50 (NCI-H522): 4.26 µM (inactive) | GI50 (OVCAR-8): 34.6 µM (inactive) | GI50 (SF-295): 33.3 µM (inactive) | GI50 (KM12): 17.3 µM (inactive) | GI50 (786-0): 31 µM (inactive) | GI50 (NCI-H226): 5.98 µM (inactive) | GI50 (RXF 631): 16.9 µM (inactive) | GI50 (EKVX): 5.26 µM (inactive) | GI50 (SK-MEL-5): 3.37 µM (inactive) | GI50 (HOP-92): 17.7 µM (inactive) | GI50 (HCT-116): 7.78 µM (inactive) | GI50 (A549): 25.3 µM (inactive)

CNC(=O)OCc1nc(SC2CCCCO2)n(C)c1COC(=O)NC (configuration not stated)
GI50 (SNB-78): > 100 µM (inactive) | GI50 (RPMI-8226): > 100 µM (inactive) | GI50 (COLO 205): > 100 µM (inactive) | GI50 (IGROV-1): > 100 µM (inactive) | GI50 (M19-MEL): > 100 µM (inactive) | GI50 (SF-268): > 100 µM (inactive) | GI50 (SR): > 100 µM (inactive) | GI50 (CAKI-1): > 100 µM (inactive) | GI50 (SW-620): > 100 µM (inactive) | GI50 (HOP-62): > 100 µM (inactive) | GI50 (HCT-15): > 100 µM | GI50 (HCC 2998): > 100 µM (inactive) | GI50 (LXFL 529): > 100 µM (inactive) | GI50 (SK-OV-3): > 100 µM (inactive) | GI50 (HL-60): > 100 µM (inactive) | GI50 (RXF 393): > 100 µM (inactive) | GI50 (NCI-H23): > 100 µM (inactive) | GI50 (U-251): > 100 µM (inactive) | GI50 (NCI-H460): > 100 µM (inactive) | GI50 (HOP-18): > 100 µM (inactive) | GI50 (UO-31): > 100 µM (inactive) | GI50 (SNB-75): > 100 µM (inactive) | GI50 (LOX IMVI): > 100 µM (inactive) | GI50 (DLD-1): > 100 µM (inactive) | GI50 (NCI/ADR-RES): > 100 µM (inactive) | GI50 (SNB-19): > 100 µM (inactive) | GI50 (OVCAR-5): > 100 µM (inactive) | GI50 (Malme-3M): > 100 µM (inactive) | GI50 (SK-MEL-2): > 100 µM (inactive) | GI50 (HT-29): > 100 µM (inactive) | GI50 (KM-20L2): > 100 µM (inactive) | GI50 (MOLT-4): > 100 µM (inactive) | GI50 (SN12C): > 100 µM (inactive) | GI50 (MCF7): > 100 µM (inactive) | GI50 (UACC-62): > 100 µM (inactive) | GI50 (DMS-273): > 100 µM (inactive) | GI50 (SK-MEL-28): > 100 µM (inactive) | GI50 (XF498): > 100 µM (inactive) | GI50 (OVCAR-3): > 100 µM (inactive) | GI50 (K562): > 100 µM (inactive) | GI50 (M14): > 100 µM (inactive) | GI50 (SF-539): > 100 µM (inactive) | GI50 (CCRF-CEM): > 100 µM (inactive) | GI50 (DMS-114): > 100 µM (inactive) | GI50 (UACC-257): > 100 µM (inactive) | GI50 (NCI-H522): > 100 µM (inactive) | GI50 (A498): > 100 µM (inactive) | GI50 (OVCAR-8): > 100 µM (inactive) | GI50 (SF-295): > 100 µM (inactive) | GI50 (KM12): > 100 µM (inactive) | GI50 (786-0): > 100 µM (inactive) | GI50 (NCI-H226): > 100 µM (inactive) | GI50 (RXF 631): > 100 µM (inactive) | GI50 (OVCAR-4): > 100 µM (inactive) | GI50 (EKVX): > 100 µM (inactive) | GI50 (SK-MEL-5): > 100 µM (inactive) | GI50 (HOP-92): > 100 µM (inactive) | GI50 (HCT-116): > 100 µM (inactive) | GI50 (A549): > 100 µM (inactive)
